Data on 21 molecules can be found in US9688710B2, “Inhibitors of sodium glucose cotransporter 1” (LEXICON PHARMACEUTICALS, INC., priority 2012, dated 2017).

A value given as a limit tells only on which side of the number the result lay.

Experiment [1] addresses Human sodium/glucose co-transporter type 2 (SGLT2) (Homo sapiens (Human), UniProt P31639). Description: In vitro human SGLT2 inhibition assay (14C-AMG uptake). The note with it: HEK293 cells expressing human HA-SGLT2, 14C-AMG uptake. Also on record: key to SGLT2 (human SGLT2 IC50): ***: a value less than 0.01 μM; **: a value less than 0.1 μM; *: a value less than 1 μM; —: a value not measured or exceeding μM. The experiment is classed as cell-based. A digest of the protocol:
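Uptake of 14C-AMG (100 nCi) was followed in a stable HEK293 HA-SGLT2 line over 1-2 h at 37 °C with or without compound. Buffer: 140 mM NaCl, 10 mM HEPES, 5 mM Tris, 1 mg/mL BSA, pH 7.3. Readout was scintillation counting after washing.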

In experiment [2] the target is Human sodium/glucose co-transporter type 1 (SGLT1) (Homo sapiens (Human), UniProt P13866). Nature of the experiment: In vitro human SGLT1 inhibition assay (14C-AMG uptake). The format is cell-based. Also on record: key to SGLT1 (human SGLT1 IC50): ***: a value less than 0.01 μM; **: a value less than 0.1 μM; *: a value less than 1 μM; —: a value not measured or exceeding μM. As to conditions: HEK293 cells expressing human HA-SGLT1, 14C-AMG uptake. An outline of the steps: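 Uptake of 14C-AMG (100 nCi) was measured by scintillation counting after 1–2 h at 37 °C, 5% CO2, with or without compound. The buffer was pH 7.3 with 140 mM NaCl, 1 mM CaCl2, 1 mM MgCl2 and 1 mg/mL BSA. Cells were a stable HEK293 line carrying HA-SGLT1 (human), plated overnight at 30,000 per well.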
Chain of Human sodium/glucose co-transporter type 1 (SGLT1) (P13866 whole entry): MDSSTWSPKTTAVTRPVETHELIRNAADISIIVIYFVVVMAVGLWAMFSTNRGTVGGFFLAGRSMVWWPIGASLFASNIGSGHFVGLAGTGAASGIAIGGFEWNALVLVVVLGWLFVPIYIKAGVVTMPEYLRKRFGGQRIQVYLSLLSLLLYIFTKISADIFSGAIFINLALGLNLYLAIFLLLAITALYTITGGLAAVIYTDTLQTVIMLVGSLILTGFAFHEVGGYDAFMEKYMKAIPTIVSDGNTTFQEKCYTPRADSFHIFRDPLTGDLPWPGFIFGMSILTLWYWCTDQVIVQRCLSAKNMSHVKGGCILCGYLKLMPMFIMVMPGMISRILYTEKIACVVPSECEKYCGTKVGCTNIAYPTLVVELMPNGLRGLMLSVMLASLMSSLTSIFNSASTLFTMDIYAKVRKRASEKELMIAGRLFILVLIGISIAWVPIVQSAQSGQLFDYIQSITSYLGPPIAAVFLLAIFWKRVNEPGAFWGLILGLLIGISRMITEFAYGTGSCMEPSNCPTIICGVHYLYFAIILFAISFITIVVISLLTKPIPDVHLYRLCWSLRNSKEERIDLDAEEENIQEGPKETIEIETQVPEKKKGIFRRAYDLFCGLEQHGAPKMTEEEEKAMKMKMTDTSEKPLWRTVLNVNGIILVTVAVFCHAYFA

Chain of Human sodium/glucose co-transporter type 2 (SGLT2) (P31639 whole entry): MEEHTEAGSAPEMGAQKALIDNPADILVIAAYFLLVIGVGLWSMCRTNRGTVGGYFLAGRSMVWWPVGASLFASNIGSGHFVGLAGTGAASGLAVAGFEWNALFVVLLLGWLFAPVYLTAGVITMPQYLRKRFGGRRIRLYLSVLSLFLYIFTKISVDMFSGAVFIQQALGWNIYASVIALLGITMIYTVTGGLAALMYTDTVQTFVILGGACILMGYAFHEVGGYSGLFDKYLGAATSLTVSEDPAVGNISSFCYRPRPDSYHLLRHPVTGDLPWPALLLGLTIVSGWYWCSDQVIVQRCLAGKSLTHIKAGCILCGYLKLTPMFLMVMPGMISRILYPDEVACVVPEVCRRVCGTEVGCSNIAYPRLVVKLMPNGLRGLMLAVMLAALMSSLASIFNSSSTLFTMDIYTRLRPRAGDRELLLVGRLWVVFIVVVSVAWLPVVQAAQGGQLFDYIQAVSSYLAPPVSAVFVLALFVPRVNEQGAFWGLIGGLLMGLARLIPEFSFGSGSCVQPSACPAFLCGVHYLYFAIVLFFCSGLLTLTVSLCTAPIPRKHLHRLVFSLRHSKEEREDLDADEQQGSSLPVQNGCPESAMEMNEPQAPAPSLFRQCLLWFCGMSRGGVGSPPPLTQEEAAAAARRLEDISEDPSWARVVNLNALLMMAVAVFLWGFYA

By IC50 is commonly meant the midpoint of a concentration-inhibition curve. For `CS[C@H]1O[C@@H](c2ccc(C)c(Cc3ccc(OCCCC(=O)NCC(C)(C)C(N)=O)cc3)c2)[C@H](O)[C@@H](O)[C@@H]1O` [N-(3-amino-2,2-dimethyl-3-oxopropyl)-4-(4-(2-methyl-5-((2S,3R,4R,5S,6R)-3,4,5-trihydroxy-6-(methylthio)tetrahydro-2H-pyran-2-yl)benzyl)phenoxy)butanamide], the IC50 is < 10 nM in experiment [1] and < 100 nM in experiment [2].

Regarding `CS[C@H]1O[C@@H](c2ccc(Cl)c(Cc3ccc(OCCNC4CCNCC4)cc3)c2)[C@H](O)[C@@H](O)[C@@H]1O` [(2S,3R,4R,5S,6R)-2-(4-chloro-3-(4-(2-(piperidin-4-ylamino)ethoxy)benzyl)phenyl)-6-(methylthio)tetrahydro-2H-pyran-3,4,5-triol], the half-maximal inhibitory concentration (IC50) in experiment [1] was < 10 nM; in experiment [2], < 100 nM.

For `CS[C@H]1O[C@@H](c2ccc(C)c(Cc3ccc(CCCCNC(=O)NC(C)(C)CO)cc3)c2)[C@H](O)[C@@H](O)[C@@H]1O` [1-(1-hydroxy-2-methylpropan-2-yl)-3-(4-(4-(2-methyl-5-((2S,3R,4R,5S,6R)-3,4,5-trihydroxy-6-(methylthio)tetrahydro-2H-pyran-2-yl)benzyl)phenyl)butyl)urea], the IC50 in experiment [1] was < 10 nM; in experiment [2], < 100 nM.

`CCNC(=O)CCCOc1ccc(Cc2cc([C@@H]3O[C@H](SC)[C@@H](O)[C@H](O)[C@H]3O)ccc2Cl)cc1` [4-(4-(2-chloro-5-((2S,3R,4R,5S,6R)-3,4,5-trihydroxy-6-(methylthio)tetrahydro-2H-pyran-2-yl)benzyl)phenoxy)-N-ethylbutanamide]: the half-inhibitory concentration (IC50) in experiment [1] was < 10 nM; in experiment [2] it was < 100 nM.

Take `CS[C@H]1O[C@@H](c2ccc(Cl)c(Cc3ccc(OCCCC(=O)NC(C)(C)C(N)=O)cc3)c2)[C@H](O)[C@@H](O)[C@@H]1O` [N-(1-amino-2-methyl-1-oxopropan-2-yl)-4-(4-(2-chloro-5-((2S,3R,4R,5S,6R)-3,4,5-trihydroxy-6-(methylthio)tetrahydro-2H-pyran-2-yl)benzyl)phenoxy)butanamide]: the 50% inhibitory concentration (IC50) in experiment [1] and in experiment [2] was < 10 nM each time.

Turning to `CS[C@H]1O[C@@H](c2ccc(Cl)c(Cc3ccc(OCC[C@H](N)C(=O)O)cc3)c2)[C@H](O)[C@@H](O)[C@@H]1O` [(S)-2-amino-4-(4-(2-chloro-5-((2S,3R,4R,5S,6R)-3,4,5-trihydroxy-6-(methylthio)tetrahydro-2H-pyran-2-yl)benzyl)phenoxy)butanoic acid], the half-maximal inhibitory concentration (IC50) in experiment [1] was < 100 nM. For the same molecule, in experiment [2], the “SGLT1 (human SGLT1 IC50)” value is recorded as “—”.

Turning to `CS[C@H]1O[C@@H](c2ccc(Cl)c(Cc3ccc(OCC(=O)O)cc3)c2)[C@H](O)[C@@H](O)[C@@H]1O` [2-(4-(2-chloro-5-((2S,3R,4R,5S,6R)-3,4,5-trihydroxy-6-(methylthio)tetrahydro-2H-pyran-2-yl)benzyl)phenoxy)acetic acid], the half-maximal inhibitory concentration (IC50) was < 100 nM in experiment [1] and < 1000 nM in experiment [2].

On to `CS[C@H]1OC(c2ccc(C)c(Cc3ccc(OCCCNC(C)(CO)CO)cc3)c2)[C@H](O)[C@@H](O)[C@@H]1O` (stereo partly drawn) [(3R,4R,5S,6R)-2-(3-(4-(3-((1,3-dihydroxy-2-methylpropan-2-yl)amino)propoxy)benzyl)-4-methylphenyl)-6-(methylthio)tetrahydro-2H-pyran-3,4,5-triol], for which the half-maximal inhibitory concentration (IC50) in experiment [1] and in experiment [2] was < 10 nM in each case.

With `CS[C@H]1O[C@@H](c2ccc(C)c(Cc3ccc(CCCCCCC(=O)NC(C)(C)CO)cc3)c2)[C@H](O)[C@@H](O)[C@@H]1O` [N-(1-hydroxy-2-methylpropan-2-yl)-7-(4-(2-methyl-5-((2S,3R,4R,5S,6R)-3,4,5-trihydroxy-6-(methylthio)tetrahydro-2H-pyran-2-yl)benzyl)phenyl)heptanamide], the values for the IC50 in experiment [1] and in experiment [2] were < 10 nM and < 100 nM, respectively.

Turning to `CS[C@H]1O[C@@H](c2ccc(C)c(Cc3ccc(CCCCNC(=O)NC(CO)(CO)CO)cc3)c2)[C@H](O)[C@@H](O)[C@@H]1O` [1-(1,3-dihydroxy-2-(hydroxymethyl)propan-2-yl)-3-(4-(4-(2-methyl-5-((2S,3R,4R,5S,6R)-3,4,5-trihydroxy-6-(methylthio)tetrahydro-2H-pyran-2-yl)benzyl)phenyl)butyl)urea], the IC50 in experiment [1] and in experiment [2] was < 10 nM throughout.

In the case of `CS[C@H]1O[C@@H](c2ccc(Cl)c(Cc3ccc(OCCCC(=O)NC4CCCCC4N4CCOCC4)cc3)c2)[C@H](O)[C@@H](O)[C@@H]1O` (stereo partly drawn) [4-(4-(2-chloro-5-((2S,3R,4R,5S,6R)-3,4,5-trihydroxy-6-(methylthio)tetrahydro-2H-pyran-2-yl)benzyl)phenoxy)-N-(2-morpholinocyclohexyl)butanamide], the 50% inhibitory concentration (IC50) in experiment [1] was < 10 nM; in experiment [2] it was < 100 nM.

Regarding `COc1ccc(Cc2cc([C@@H]3O[C@H](SC)[C@@H](O)[C@H](O)[C@H]3O)ccc2OC(F)(F)F)cc1` [(2S,3R,4R,5S,6R)-2-(3-(4-methoxybenzyl)-4-(trifluoromethoxy)phenyl)-6-(methylthio)tetrahydro-2H-pyran-3,4,5-triol], in experiment [1], the “SGLT2 (human SGLT2 IC50)” value is “—”. In addition, the “SGLT1 (human SGLT1 IC50)” value in experiment [2] is given as “—”.

On to `CCNC(=O)CCCOc1ccc(Cc2cc([C@@H]3O[C@H](SC)[C@@H](O)[C@H](O)[C@H]3O)ccc2C)cc1` [N-ethyl-4-(4-(2-methyl-5-((2S,3R,4R,5S,6R)-3,4,5-trihydroxy-6-(methylthio)tetrahydro-2H-pyran-2-yl)benzyl)phenoxy)butanamide], for which the IC50 in experiment [1] and in experiment [2] was < 10 nM in each case.

In the case of `CS[C@H]1O[C@@H](c2ccc(C)c(Cc3ccc(CCCC(=O)NC(C)(C)C(=O)NCCN(C)C)cc3)c2)[C@H](O)[C@@H](O)[C@@H]1O` [N-(1-((2-(dimethylamino)ethyl)amino)-2-methyl-1-oxopropan-2-yl)-4-(4-(2-methyl-5-((2S,3R,4R,5S,6R)-3,4,5-trihydroxy-6-(methylthio)tetrahydro-2H-pyran-2-yl)benzyl)phenyl)butanamide], the IC50 in experiment [1] and in experiment [2] was < 10 nM throughout.

On to `CS[C@H]1O[C@@H](c2ccc(C)c(Cc3ccc(CCCC(=O)NCCCC[C@H](N)C(=O)O)cc3)c2)[C@H](O)[C@@H](O)[C@@H]1O` [(S)-2-amino-6-(4-(4-(2-methyl-5-((2S,3R,4R,5S,6R)-3,4,5-trihydroxy-6-(methylthio)tetrahydro-2H-pyran-2-yl)benzyl)phenyl)butanamido)hexanoic acid], for which the concentration for half-maximal inhibition (IC50) in experiment [1] and in experiment [2] was < 10 nM throughout.

Consider `CS[C@H]1O[C@@H](c2ccc(C)c(Cc3ccc(CCCC(=O)NCCCN(C)CCCNC(=O)CCCc4ccc(Cc5cc([C@@H]6O[C@H](SC)[C@@H](O)[C@H](O)[C@H]6O)ccc5C)cc4)cc3)c2)[C@H](O)[C@@H](O)[C@@H]1O` [(S,R,S,R,R)-N,N′-((methylazanediyl)bis(propane-3,1-diyl))bis(4-(4-(2-methyl-5-((2S,3R,4R,5S,6R)-3,4,5-trihydroxy-6-(methylthio)tetrahydro-2H-pyran-2-yl)benzyl)phenyl)butanamide)], for which the half-inhibitory concentration (IC50) in experiment [1] and in experiment [2] was < 10 nM throughout.

In the case of `CS[C@H]1O[C@@H](c2ccc(Cl)c(Cc3ccc(OCCCNC(=N)N)cc3)c2)[C@H](O)[C@@H](O)[C@@H]1O` [1-(3-(4-(2-chloro-5-((2S,3R,4R,5S,6R)-3,4,5-trihydroxy-6-(methylthio)tetrahydro-2H-pyran-2-yl)benzyl)phenoxy)propyl)guanidine], the half-maximal inhibitory concentration (IC50) in experiment [1] and in experiment [2] was < 10 nM in each case.

For the molecule `CS[C@H]1O[C@@H](c2ccc(Cl)c(Cc3ccc(OCCCC(=O)NCC(C)(C)C(N)=O)cc3)c2)[C@H](O)[C@@H](O)[C@@H]1O` [N-(3-amino-2,2-dimethyl-3-oxopropyl)-4-(4-(2-chloro-5-((2S,3R,4R,5S,6R)-3,4,5-trihydroxy-6-(methylthio)tetrahydro-2H-pyran-2-yl)benzyl)phenoxy)butanamide], the half-inhibitory concentration (IC50) in experiment [1] was < 10 nM; in experiment [2], < 100 nM.

With `CS[C@H]1O[C@@H](c2ccc(C)c(Cc3ccc(CCCCCN)cc3)c2)[C@H](O)[C@@H](O)[C@@H]1O` [(2S,3R,4R,5S,6R)-2-(3-(4-(5-aminopentyl)benzyl)-4-methylphenyl)-6-(methylthio)tetrahydro-2H-pyran-3,4,5-triol], the results for the IC50 in experiment [1] and in experiment [2] were < 10 nM and < 100 nM, respectively.

`CS[C@H]1O[C@@H](c2ccc(C)c(Cc3ccc(OCCCC(=O)NC(C)(CO)CO)cc3)c2)[C@H](O)[C@@H](O)[C@@H]1O` [N-(1,3-dihydroxy-2-methylpropan-2-yl)-4-(4-(2-methyl-5-((2S,3R,4R,5S,6R)-3,4,5-trihydroxy-6-(methylthio)tetrahydro-2H-pyran-2-yl)benzyl)phenoxy)butanamide]: the 50% inhibitory concentration (IC50) in experiment [1] and in experiment [2] was < 100 nM throughout.

For `CS[C@H]1OC(c2ccc(C)c(Cc3ccc(OCCCNCC(C)(C)CO)cc3)c2)[C@H](O)[C@@H](O)[C@@H]1O` (stereo partly drawn) [(3R,4R,5S,6R)-2-(3-(4-(3-((3-hydroxy-2,2-dimethylpropyl)amino)propoxy)benzyl)-4-methylphenyl)-6-(methylthio)tetrahydro-2H-pyran-3,4,5-triol], the 50% inhibitory concentration (IC50) in experiment [1] and in experiment [2] was < 10 nM each time.
